Active and inactive are the calls of the source. The rule behind the calls is not given here.
Tests used:
Cladosporium cucumerinum [1] = experiment: Antifungal activity against Cladosporium cucumerinum at 5 ug after 3 days by MTT assay; format: functional, organism-based
Cladosporium cucumerinum [2] = experiment: Antifungal activity against Cladosporium cucumerinum at 1 ug after 3 days by MTT assay; format: functional, organism-based
Cladosporium cucumerinum [3] = experiment: Antifungal activity against Cladosporium cucumerinum at 10 ug after 3 days by MTT assay; format: functional, organism-based
[4] = system: Radical scavenging activity; experiment: Antioxidant activity assessed as DPPH radical scavenging activity at 10 ug; format: functional
Candida albicans [5] = experiment: Antifungal activity against Candida albicans at 10 ug after 3 days by MTT assay; format: functional, organism-based
[6] = system: Radical scavenging activity; experiment: Antioxidant activity assessed as DPPH radical scavenging activity at 1 ug; format: functional
Candida albicans [7] = experiment: Antifungal activity against Candida albicans at 5 ug after 3 days by MTT assay; format: functional, organism-based
[8] = system: Radical scavenging activity; experiment: Antioxidant activity assessed as DPPH radical scavenging activity at 5 ug; format: functional

SMILES	Activity (Cladosporium cucumerinum [1])	Activity (Cladosporium cucumerinum [2])	Activity (Cladosporium cucumerinum [3])	Activity [4]	Activity (Candida albicans [5])	Activity [6]	Activity (Candida albicans [7])	Activity [8]
C=C(C)C(O)Cc1c(O)cc(O)c2c1OC(c1ccc(O)cc1)CC2=O (centres undefined)	Active	inactive	Active	Active	Active	Active	Active	Active
COc1cc(O)c2c(=O)c(-c3ccc(O)cc3OC)coc2c1	inactive	inactive	inactive	Active	inactive	inactive	inactive	Active
COc1cc(O)c2c(=O)c(-c3ccc(O)c(C)c3O)coc2c1	inactive	inactive	Active	Active	Active	Active	Active	Active
CC1(C)C=Cc2c(cc3occ(-c4ccc(O)cc4O)c(=O)c3c2O)O1	Active	Active	Active	Active	Active	Active	Active	Active
COc1cc(O)c2c(=O)c(-c3ccc(O)cc3O)coc2c1	Active	Active	Active	inactive	inactive	inactive	inactive	inactive
CC1(C)C=Cc2c(cc(O)c3c(=O)c(-c4ccc(O)cc4O)coc23)O1	Active	Active	Active	Active	Active	Active	Active	Active
COc1cc(O)c2c(=O)c(-c3ccc(O)c(C)c3OC)coc2c1	Active	Active	Active	inactive	inactive	inactive	inactive	inactive
COc1cc(-c2cc(=O)c3c(O)cc(O)cc3o2)cc(OC)c1O	inactive	inactive	inactive	Active	inactive	Active	inactive	Active

Source: ChEMBL document CHEMBL1141755, “Flavonoids from the stem of Eriophorum scheuchzeri” (J Nat Prod, 2005)
